Data published in the COVID Moonshot data (paper PMC11187573), “Identification of SARS-CoV-2 Mpro inhibitors through deep reinforcement learning for de novo drug design and computational chemistry approaches” (RSC Medicinal Chemistry, 2024).

Tests used:
[1] = target: SARS-CoV-2 Main Protease (SARS-CoV-2) (UniProt P0DTD1)
[2] = target: SARS-CoV-2 Main Protease (SARS-CoV-2) (UniProt P0DTD1); remark: listed apart in the source

| Structure (SMILES) | inhibition ([1]; 50.0 µM) | relative solubility at 20 uM | relative solubility at 100 uM | inhibition ([2]; 20.0 µM) | inhibition ([2]; 50.0 µM) | inhibition ([1]; 20.0 µM) | IC50 [1] |
| --- | --- | --- | --- | --- | --- | --- | --- |
| Cc1cc(NC(=O)Cn2cncc2C)cc(C)c1Cl | 25.8% | 1 | 0.99 | 2.9% | 4.88% | – | – |
| C=CC(=O)N(c1ccc(C(C)(C)C)cc1)C(C(=O)NC1CCCCC1)c1cccnc1 (stereo not given) | 18.6% | 0.99 | 1 | 13.3% | 17.8% | 0% | – |
| O=C(c1cc(=O)[nH]c2ccccc12)N1CCN(c2ccccc2)CC1 | 78.8% | 1 | 1 | – | 54.1% | 66.6% | 10.4 µM |
| CC(NC(=O)Nc1cccc(N2CCCCC2=O)c1)c1ccn[nH]1 (stereo not given) | 0% | 1 | 1 | -8.95% | -2.76% | – | – |
| C=CC(=O)N(c1ccc(C(C)(C)C)cc1)C(C(=O)NCCCSC)c1cccnc1 (stereo not given) | 100% | 1 | 1 | 50.3% | 75.6% | 70% | 13.7 µM |
| O=C(Cc1cncnc1)Nc1cccc(CCCc2ccccc2)c1 | 0% | 0.96 | 0.94 | 1.12% | 10.1% | 0% | – |
| N#Cc1cccc(NC(=O)Nc2c[nH]c3ncccc23)c1 | 19.9% | 1 | 0.91 | – | 47.3% | 0% | – |
| O=C1N(Cc2cccc(Cl)c2)CCN1c1nccc2n[nH]cc12 | 88.8% | 0.92 | 0.93 | 72.1% | 84.1% | – | 2.91 µM |
| Cc1cccc(NC(=O)Cn2c(=O)oc3ccccc32)c1 | -9.03% | 0.99 | 0.94 | -20.4% | -5.83% | – | – |
| O=C(Cc1cccc(Cl)c1)Nc1nnn[nH]1 | 27.2% | 1 | 1 | 23.3% | 49.1% | – | – |
| C=CC(=O)N(c1ccc(C(C)(C)C)cc1)C(C(=O)NCc1ccccc1)c1cccnc1 (stereo not given) | 100% | 0.99 | 0.89 | 42.3% | 66.6% | 69.1% | 14.3 µM |
| Cc1ccncc1NC(=O)CCNc1ccc(S(N)(=O)=O)cc1 | 0% | 1 | 1 | – | -27.1% | 0% | – |
| Cc1ccncc1CC(=O)Nc1cccc(Cl)c1 | 88.6% | 1 | 1 | 42.2% | 67.4% | – | 26.4 µM |
| O=C(NCc1ccno1)c1ccccc1Oc1ccc(Cl)cc1Cl | 0% | 1 | 0.96 | -13% | -12.4% | 0% | – |
| C=CC(=O)N(c1ccc(S(F)(F)(F)(F)F)cc1)C(C(=O)Nc1ccc(OC)cc1)c1cccnc1 (stereo not given) | – | 0.83 | 0.71 | 15.7% | 30.6% | 10.4% | – |
| O=C(CC1(c2ccccc2)CCCC1)Nc1cccnc1 | 13.9% | 1 | 1 | – | 3.98% | 0% | – |
| COc1ccc2c(c1)C(C(=O)Nc1cnccc1-n1cccn1)CCC2 (stereo not given) | 0% | 0.99 | 0.95 | -15.2% | 7.3% | – | – |
| CC(C(=O)Nc1cccc(OC2CC(=O)N2)c1)c1cnccn1 (stereo not given) | 0% | 1 | 1 | – | 17% | 0% | – |
